The results in this text go back to patent US20250059171A1 (Hoffmann-La Roche Inc., priority 2021, published 2025).

Broadly, the IC50 is the concentration at which inhibition is half-maximal.

One assay addresses HCoV-229E 3CLpro (Human coronavirus 229E, UniProt P0C6X1). The assay is described as follows: HCoV-229E 3CLpro inhibition assay (FRET). In kind it is biochemical.
For a further assay, the target named is SARS-CoV-2 3CLpro (Severe acute respiratory syndrome coronavirus 2, UniProt P0DTD1). The experiment in a line: biochemical.
The target in a further assay is SARS-CoV 3CLpro (Severe acute respiratory syndrome coronavirus, UniProt P0C6X7). The assay is described as follows: biochemical.
For another assay, the target named is MERS-CoV 3CLpro (Middle East respiratory syndrome-related coronavirus, UniProt K9N7C7). The assay is described as follows: biochemical.
Sequence of MERS-CoV 3CLpro (K9N7C7 3248-3553): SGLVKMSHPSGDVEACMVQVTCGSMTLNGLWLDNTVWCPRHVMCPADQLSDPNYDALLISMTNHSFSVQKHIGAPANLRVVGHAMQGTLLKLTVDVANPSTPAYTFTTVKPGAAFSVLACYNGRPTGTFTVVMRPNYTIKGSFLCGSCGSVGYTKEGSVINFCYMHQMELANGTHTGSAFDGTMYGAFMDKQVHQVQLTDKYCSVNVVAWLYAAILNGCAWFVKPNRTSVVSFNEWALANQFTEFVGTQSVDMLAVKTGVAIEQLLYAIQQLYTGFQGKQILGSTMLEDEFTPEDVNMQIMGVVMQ

The structures appear in SMILES notation. Where two headings read alike, the source gives them in different places.

Sequence of HCoV-229E 3CLpro (P0C6X1 2966-3267): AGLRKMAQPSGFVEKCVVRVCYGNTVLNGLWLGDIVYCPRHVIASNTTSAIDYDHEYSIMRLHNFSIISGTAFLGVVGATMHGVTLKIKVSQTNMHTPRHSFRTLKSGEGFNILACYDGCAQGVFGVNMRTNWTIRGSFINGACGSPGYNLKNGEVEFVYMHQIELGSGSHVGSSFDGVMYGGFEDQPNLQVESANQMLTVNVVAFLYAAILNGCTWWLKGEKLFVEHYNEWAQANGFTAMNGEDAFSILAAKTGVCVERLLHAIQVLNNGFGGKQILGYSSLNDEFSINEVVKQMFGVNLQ

In the case of `CC1(C)[C@@H]2[C@@H](C(=O)NN(C[C@@H]3CCNC3=O)C(=O)[C@H](F)Cl)N(C(=O)/C=C/c3cc(C(F)(F)F)cc(C(F)(F)F)c3)C[C@@H]21` [Example 180, (1R,2S,5S)-3-[(E)-3-[3,5-bis(trifluoromethyl)phenyl]prop-2-enoyl]-N′-[(2R)-2-chloro-2-fluoro-acetyl]-6,6-dimethyl-N′—[[(3S)-2-oxopyrrolidin-3-yl]methyl]-3-azabicyclo[3.1.0]hexane-2-carbohydrazide], the IC50 at HCoV-229E 3CLpro was 241 nM; at SARS-CoV-2 3CLpro, 491 nM; on SARS-CoV 3CLpro it was 786 nM; against MERS-CoV 3CLpro it was 657 nM.

Regarding `CC1(C)[C@@H]2[C@@H](C(=O)NN(C[C@@H]3CCNC3=O)C(=O)[C@H](F)Cl)N(C(=O)/C=C/c3cc(F)cc(F)c3)C[C@@H]21` [Example 181, (1R,2S,5S)—N′-[(2R)-2-chloro-2-fluoro-acetyl]-3-[(E)-3-(3,5-difluorophenyl)prop-2-enoyl]-6,6-dimethyl-N′—[[(3S)-2-oxopyrrolidin-3-yl]methyl]-3-azabicyclo[3.1.0]hexane-2-carbohydrazide], the IC50 against HCoV-229E 3CLpro is 48 nM; against SARS-CoV-2 3CLpro, 208 nM; on SARS-CoV 3CLpro it was 252 nM; against MERS-CoV 3CLpro, 363 nM.

Turning to `CC(C)(C)[C@H](Nc1cc(F)ncn1)C(=O)N1C[C@@H]2CCC[C@@H]2[C@H]1C(=O)NN(C[C@@H]1CCNC1=O)C(=O)[C@H](F)Cl` [Example 182], the IC50 on HCoV-229E 3CLpro came to 37 nM; against SARS-CoV-2 3CLpro it was 11 nM; on SARS-CoV 3CLpro it was 12 nM; against MERS-CoV 3CLpro, 89 nM.

For `CC(C)(C)[C@H](Nc1ncncc1F)C(=O)N1C[C@@H]2CCC[C@@H]2[C@H]1C(=O)NN(C[C@@H]1CCNC1=O)C(=O)[C@H](F)Cl` [Example 183], the IC50 against HCoV-229E 3CLpro worked out at 59 nM; against SARS-CoV-2 3CLpro it was 11 nM; at SARS-CoV 3CLpro, 16 nM; on MERS-CoV 3CLpro it was 174 nM.

For `CC(C)(C)[C@H](Nc1ccccn1)C(=O)N1C[C@@H]2CCC[C@@H]2[C@H]1C(=O)NN(C[C@@H]1CCNC1=O)C(=O)[C@H](F)Cl` [Example 184], the IC50 against HCoV-229E 3CLpro came out at 86 nM; on SARS-CoV-2 3CLpro, 16 nM; at SARS-CoV 3CLpro it was 41 nM; on MERS-CoV 3CLpro it was 275 nM.

As for `CC[C@H](C)[C@H](NC(=O)[C@H](F)Cl)C(=O)N1C[C@H]2[C@@H]([C@H]1C(=O)NN(C[C@@H]1CCNC1=O)C(=O)[C@H](F)Cl)C2(C)C` [Example 185, (2R)-2-chloro-N-[(1S,2S)-1-[(1R,2S,5S)-2-[[[(2R)-2-chloro-2-fluoro-acetyl]-[[(3S)-2-oxopyrrolidin-3-yl]methyl]amino]carbamoyl]-6,6-dimethyl-3-azabicyclo[3.1.0]hexane-3-carbonyl]-2-methyl-butyl]-2-fluoro-acetamide], the IC50 at HCoV-229E 3CLpro was 40 nM; on SARS-CoV-2 3CLpro, 11 nM; at SARS-CoV 3CLpro it was 21 nM; at MERS-CoV 3CLpro it was 99 nM.

With `CC[C@H](C)[C@H](NC(=O)[C@@H](F)Cl)C(=O)N1C[C@H]2[C@@H]([C@H]1C(=O)NN(C[C@@H]1CCNC1=O)C(=O)[C@@H](F)Cl)C2(C)C` [Example 186, (2S)-2-chloro-N-[(1S,2S)-1-[(1R,2S,5S)-2-[[[(2S)-2-chloro-2-fluoro-acetyl]-[[(3S)-2-oxopyrrolidin-3-yl]methyl]amino]carbamoyl]-6,6-dimethyl-3-azabicyclo[3.1.0]hexane-3-carbonyl]-2-methyl-butyl]-2-fluoro-acetamide], the IC50 is 49 nM on HCoV-229E 3CLpro, 13 nM at SARS-CoV-2 3CLpro, 23 nM on SARS-CoV 3CLpro and 69 nM at MERS-CoV 3CLpro.

For `CC[C@H](C)[C@H](NC(=O)[C@@H](F)Cl)C(=O)N1CC(C)(C)C[C@H]1C(=O)NN(C[C@@H]1CCNC1=O)C(=O)[C@@H](F)Cl` [Example 187, (2S)-2-chloro-N-[(1S,2S)-1-[(2S)-2-[[[(2S)-2-chloro-2-fluoro-acetyl]-[[(3S)-2-oxopyrrolidin-3-yl]methyl]amino]carbamoyl]-4,4-dimethyl-pyrrolidine-1-carbonyl]-2-methyl-butyl]-2-fluoro-acetamide], the IC50 came to 36 nM against HCoV-229E 3CLpro, 24 nM at SARS-CoV-2 3CLpro, 43 nM against SARS-CoV 3CLpro and 167 nM at MERS-CoV 3CLpro.

Turning to `CC[C@H](C)[C@H](NC(=O)[C@H](F)Cl)C(=O)N1C[C@H]2[C@@H]([C@H]1C(=O)NN(C[C@@H]1CCCNC1=O)C(=O)[C@H](F)Cl)C2(C)C` [Example 188, (2R)-2-chloro-N-[(1S,2S)-1-[(1R,2S,5S)-2-[[[(2R)-2-chloro-2-fluoro-acetyl]-[[(3S)-2-oxo-3-piperidyl]methyl]amino]carbamoyl]-6,6-dimethyl-3-azabicyclo[3.1.0]hexane-3-carbonyl]-2-methyl-butyl]-2-fluoro-acetamide], the IC50 against HCoV-229E 3CLpro was determined as 26 nM; against SARS-CoV-2 3CLpro, 8 nM; on SARS-CoV 3CLpro it was 12 nM; against MERS-CoV 3CLpro, 68 nM.

On to `CC[C@H](C)[C@H](NC(=O)[C@@H](F)Cl)C(=O)N1C[C@H]2[C@@H]([C@H]1C(=O)NN(C[C@@H]1CCCNC1=O)C(=O)[C@@H](F)Cl)C2(C)C` [Example 189, (2S)-2-chloro-N-[(1S,2S)-1-[(1R,2S,5S)-2-[[[(2S)-2-chloro-2-fluoro-acetyl]-[[(3S)-2-oxo-3-piperidyl]methyl]amino]carbamoyl]-6,6-dimethyl-3-azabicyclo[3.1.0]hexane-3-carbonyl]-2-methyl-butyl]-2-fluoro-acetamide], for which the IC50 came out at 24 nM against HCoV-229E 3CLpro, 8 nM against SARS-CoV-2 3CLpro, 10 nM against SARS-CoV 3CLpro and 50 nM at MERS-CoV 3CLpro.

For `CC[C@H](C)[C@H](NC(=O)[C@H](F)Cl)C(=O)N1C[C@@H]2CCC[C@@H]2[C@H]1C(=O)NN(C[C@@H]1CCCNC1=O)C(=O)[C@H](F)Cl` [Example 190, (2R)—N-[(1S,2S)-1-[(3S,3aS,6aR)-3-[[[(2R)-2-chloro-2-fluoro-acetyl]-[[(3S)-2-oxo-3-piperidyl]methyl]amino]carbamoyl]-3,3a,4,5,6,6a-hexahydro-1H-cyclopenta[c]pyrrole-2-carbonyl]-2-methyl-butyl]-2-chloro-2-fluoro-acetamide], the IC50 was 29 nM against HCoV-229E 3CLpro, 8 nM against SARS-CoV-2 3CLpro, 11 nM against SARS-CoV 3CLpro and 59 nM at MERS-CoV 3CLpro.

Consider `CC[C@H](C)[C@H](NC(=O)[C@@H](F)Cl)C(=O)N1C[C@@H]2CCC[C@@H]2[C@H]1C(=O)NN(C[C@@H]1CCCNC1=O)C(=O)[C@@H](F)Cl` [Example 191, (2S)—N-[(1S,2S)-1-[(3S,3aS,6aR)-3-[[[(2S)-2-chloro-2-fluoro-acetyl]-[[(3S)-2-oxo-3-piperidyl]methyl]amino]carbamoyl]-3,3a,4,5,6,6a-hexahydro-1H-cyclopenta[c]pyrrole-2-carbonyl]-2-methyl-butyl]-2-chloro-2-fluoro-acetamide], for which the IC50 turned out to be 27 nM against HCoV-229E 3CLpro, 7 nM at SARS-CoV-2 3CLpro (read-out: IC50 in SARS-CoV-2 3CLpro assay), 11 nM at SARS-CoV 3CLpro and 49 nM at MERS-CoV 3CLpro.

With `CC[C@H](C)[C@H](NC(=O)[C@H](F)Cl)C(=O)N1C[C@@H]2CCC[C@@H]2[C@H]1C(=O)NN(C[C@H]1CCCNC1=O)C(=O)[C@H](F)Cl` [Example 192, (2R)—N-[(1S,2S)-1-[(3S,3aS,6aR)-3-[[[(2R)-2-chloro-2-fluoro-acetyl]-[[(3R)-2-oxo-3-piperidyl]methyl]amino]carbamoyl]-3,3a,4,5,6,6a-hexahydro-1H-cyclopenta[c]pyrrole-2-carbonyl]-2-methyl-butyl]-2-chloro-2-fluoro-acetamide], the IC50 at HCoV-229E 3CLpro worked out at 52 nM; against SARS-CoV-2 3CLpro, 10 nM; on SARS-CoV 3CLpro, 17 nM; against MERS-CoV 3CLpro, 148 nM.

For the compound `CC[C@H](C)[C@H](NC(=O)[C@@H](F)Cl)C(=O)N1C[C@@H]2CCC[C@@H]2[C@H]1C(=O)NN(C[C@H]1CCCNC1=O)C(=O)[C@@H](F)Cl` [Example 193, (2S)—N-[(1S,2S)-1-[(3S,3aS,6aR)-3-[[[(2S)-2-chloro-2-fluoro-acetyl]-[[(3R)-2-oxo-3-piperidyl]methyl]amino]carbamoyl]-3,3a,4,5,6,6a-hexahydro-1H-cyclopenta[c]pyrrole-2-carbonyl]-2-methyl-butyl]-2-chloro-2-fluoro-acetamide], the IC50 stood at 49 nM on HCoV-229E 3CLpro, 17 nM against SARS-CoV-2 3CLpro, 33 nM against SARS-CoV 3CLpro and 110 nM on MERS-CoV 3CLpro.

On to `CC[C@H](C)[C@H](NC(=O)[C@H](F)Cl)C(=O)N1C[C@H]2[C@@H]([C@H]1C(=O)NN(C[C@H]1CCCNC1=O)C(=O)[C@H](F)Cl)C2(C)C` [Example 194, (2R)-2-chloro-N-[(1S,2S)-1-[(1R,2S,5S)-2-[[[(2R)-2-chloro-2-fluoro-acetyl]-[[(3R)-2-oxo-3-piperidyl]methyl]amino]carbamoyl]-6,6-dimethyl-3-azabicyclo[3.1.0]hexane-3-carbonyl]-2-methyl-butyl]-2-fluoro-acetamide], for which the IC50 amounted to 29 nM on HCoV-229E 3CLpro, 15 nM at SARS-CoV-2 3CLpro, 25 nM at SARS-CoV 3CLpro and 112 nM against MERS-CoV 3CLpro.

For `CC[C@H](C)[C@H](NC(=O)[C@@H](F)Cl)C(=O)N1C[C@H]2[C@@H]([C@H]1C(=O)NN(C[C@H]1CCCNC1=O)C(=O)[C@@H](F)Cl)C2(C)C` [Example 195, (2S)-2-chloro-N-[(1S,2S)-1-[(1R,2S,5S)-2-[[[(2S)-2-chloro-2-fluoro-acetyl]-[[(3R)-2-oxo-3-piperidyl]methyl]amino]carbamoyl]-6,6-dimethyl-3-azabicyclo[3.1.0]hexane-3-carbonyl]-2-methyl-butyl]-2-fluoro-acetamide], the IC50 on HCoV-229E 3CLpro was found to be 29 nM; against SARS-CoV-2 3CLpro, 28 nM; on SARS-CoV 3CLpro, 51 nM; against MERS-CoV 3CLpro, 112 nM.
